Experimental data as given in patent publication US20040259770A1, “Method for determining leukocyte activation” (Rush University Medical Center, priority 2003, published 2004).

Tests used:
eosinophils [1] = assay: Eosinophil superoxide production (cytochrome c reduction) in protein-coated tissue culture wells; format: cell-based, human; settings: for inhibition of superoxide production stimulated by immobilized lactoferrin (in words): lower concentrations of heparin, any of the concentrations of chondroitin sulfate (30 to 1000 micrograms per milliliter); for inhibition of superoxide production stimulated by 30 micrograms per milliliter of immobilized lactoferrin: heparin 1000 micrograms per milliliter (highest concentration tested), 120 minutes at 37° C
Protocol: Neutrophils were isolated from venous blood of healthy adult volunteers by density gradient centrifugation through lymphocyte separation medium (BioWhittaker; Walkersville, Md.) as described previously (Haskell M. D., et al., Blood 86:4627-4637 (1995)) with one modification. Isotonicity was restored following the brief hypotonic lysis steps by the addition of 2× concentrated Hank's Balanced Salt Solution (HBSS) (Gibco; Grand Island, N.Y.) (without Ca^2+ and Mg^2+) containing 5 mM HEPES, pH 7.4. The cells were suspended in HEPES (10 mM)-buffered HBSS (with Ca^2+ and Mg^2+), pH 7.4, containing 1 milligram per milliliter of human serum albumin (HSA) (Sigma Chemical Co.) (HEPES-HBSS-HSA buffer). Neutrophil purity was routinely greater than 95 percent, with eosinophils representing the remainder of the cells. Eosinophils were isolated from the neutrophil preparations by negative selection (Hansel T. T., et al., J. Immunol. Meth. 145:105-10 (1991)) using anti-CD16 immunomagnetic beads as described by the manufacturer (Miltenyi Biotec, Inc., Auburn, Calif.). The eosinophils were suspended in HEPES-HBSS-HSA buffer. Eosinophil purity was routinely greater than 95 percent as determined by counting Wright-stained cytospin preparations. In some assays, an aliquot of the neutrophil preparation was held on ice for later use.
Superoxide production was measured essentially as described elsewhere (Motegi, Y., and H. Kita, J. Immunol. 161:4340 (1998)). Briefly, wells in a 96-well (flat bottom) tissue culture plate (Corning, Inc.; Corning, N.Y.) were coated with human milk lactoferrin (Sigma Chemical Co.) or human secretory IgA (ICN Biomedical; Aurora, Ohio) by incubation with 50 microliters of the indicated concentrations of the proteins in phosphate buffered saline (PBS) overnight at 4° C. Non-specific protein binding sites were blocked by subsequent incubation with 100 microliters of 25 milligrams per milliliter of HSA in PBS for 2 hours at 37° C., and the tissue culture wells were washed twice with PBS before use. Aliquots (5×10^4 cells) of eosinophils or neutrophils were added to the wells and were incubated in HEPES-HBSS—HSA buffer containing 50 micromolar cytochrome c (Sigma Chemical Co.) for 120 minutes at 37° C. in a Ceres UV900HDi microplate reader (Bio-Tek Instruments, Inc., Winooski, Vt.). Total incubation volume was 0.2 milliliters. Absorbance at 550 nanometers was recorded at 15-minute intervals, and superoxide production was calculated as described previously (Motegi, Y., and H. Kita, J. Immunol. 161:4340 (1998)). Results are expressed as nanomoles superoxide per 10^5 cells after subtraction of spontaneous production, which was measured in tissue culture wells coated only with HSA. GM-CSF (R & D Systems; Minneapolis, Minn.), porcine heparin (Sigma Chemical Co.), or chondroitin sulfate C (Sigma Chemical Co.) was added to the incubation mixtures in some assays as indicated.

eosinophils [2] = assay: Eosinophil degranulation: EDN release by ELISA; format: cell-based, human; settings: 100 picograms per milliliter GM-CSF, 3 and 10 micrograms per milliliter immobilized lactoferrin
Protocol: Eosinophils (2×10^5) were incubated in the presence and absence of 100 picograms per milliliter of GM-CSF in RPMI 1640 containing 1 milligram per milliliter of HSA for 4 hours at 37° C. in 5 percent CO2 in tissue culture wells precoated with lactoferrin or secretory IgA as above. Total incubation volume was 0.2 milliliters. Reactions were stopped by centrifugation at 300 g for 5 minutes at 4° C., and supernatants were stored at −20° C. until measurement of eosinophil-derived neurotoxin (EDN) content by specific ELISA (MBL International, Watertown, Mass.). Spontaneous release of EDN was determined with cells incubated in HSA-coated wells.

eosinophils [3] = assay: Eosinophil leukotriene C4 production by ELISA; format: cell-based, human
Protocol: Eosinophils (2×10^5) were incubated in the presence and absence of 100 pg/ml GM-CSF in RPMI 1640 containing 10 mM HEPES for 1 hr at 37° C. in tissue culture wells precoated with lactoferrin or secretory IgA as above with one modification. The tissue culture wells were not treated with HSA and HSA was not added to the incubation buffer to minimize loss of leukotriene C4. Total incubation volume was 0.2 ml. Reactions were stopped by centrifugation at 300 g for 5 min at 4° C., and supernatants were stored at −20° C. until measurement of leukotriene C4 content by a leukotriene C4/D4/E4 ELISA (Amersham Pharmacia Biotech; Piscataway, N.J.). Spontaneous leukotriene C4 production was determined with eosinophils incubated in untreated tissue culture wells.

[4] = tested on: lactoferrin receptors on eosinophils; assay: Binding of 125I-labeled lactoferrin by eosinophils, Scatchard analysis; set-up: species or system human; settings: 5 micromolar transferrin, 90 nanomolar 125I-labeled lactoferrin, n=2
Protocol: Lactoferrin (100 micrograms) was radioiodinated using IODO-GEN iodination reagent (Pierce; Rockford, Ill.) according to the procedure supplied by the manufacturer. The lactoferrin was incubated with 400 micro Curies Na^125I (PerkinElmer Life Sciences; Boston, Mass.) for 3 min, and the ^125I-labeled lactoferrin was separated from free Na^125I by chromatography through a 5-ml D-Salt dextran desalting column (Pierce) using PBS as the elution buffer. Protein concentration of the ^125I-labeled lactoferrin was measured by the BCA assay (Pierce). Specific activity of the ^125I-labeled lactoferrin was 34,800 cpm/pmole. […] Binding of ^125I-labeled lactoferrin by eosinophils was determined using a modification of previously described protocols for eosinophils. Motegi et al. J. Immunol. […] In some experiments as indicated, binding was measured in the presence of excess unlabeled transferrin. […] The supernatant was removed by careful aspiration, and after quick-freezing on dry ice the tip of the tube containing the cell pellet was excised and the radioactivity was measured by gamma counting (Beckman Coulter Gamma 5500B). Specific binding was determined as the difference between total binding and binding in the presence of the excess unlabeled lactoferrin. Binding constants were determined by Scatchard analysis (Scatchard, G., Ann. N.Y. Acad. Sci. 51:660 (1949)).

Substance: GM-CSF: granulocyte macrophage colony stimulating factor (R & D Systems)
- reduction by GM-CSF of the concentration of immobilized lactoferrin required for maximal superoxide production or EDN release (eosinophils [1]; 100 picograms per milliliter GM-CSF): approximately three-fold
- effect of GM-CSF on superoxide production stimulated by immobilized lactoferrin (eosinophils [1]; 100 picograms per milliliter GM-CSF, 10 micrograms per milliliter immobilized lactoferrin): enhanced the amount of superoxide production
- effect of GM-CSF on superoxide production stimulated by immobilized lactoferrin (eosinophils [1]; 100 picograms per milliliter GM-CSF, higher concentrations of immobilized lactoferrin): did not appear to increase the level of superoxide production
- GM-CSF stimulated superoxide production (eosinophils [1]; GM-CSF alone (100 picograms per milliliter), 2-hour time point, five assays): 2.8±0.7 nanomoles of superoxide per 10^5 eosinophils
- effect of GM-CSF on EDN release stimulated by immobilized lactoferrin (eosinophils [2]): significantly enhanced EDN release
- leukotriene C4 production (eosinophils [3]; 100 picograms per milliliter GM-CSF alone, 1 hour): 175 picograms leukotriene C4 per 10^6 eosinophils
- effect of GM-CSF on leukotriene C4 release stimulated by immobilized lactoferrin (eosinophils [3]; 100 picograms per milliliter GM-CSF, 10 to 100 micrograms per milliliter immobilized lactoferrin): significantly enhanced leukotriene C4 release

Substance: chondroitin sulfate [reference compound]
- effect on superoxide production stimulated by immobilized lactoferrin (in words) (eosinophils [1]; 1000 micrograms per milliliter, 30 micrograms per milliliter immobilized lactoferrin): slight, but statistically significant, increase in superoxide production
- inhibition of superoxide production stimulated by immobilized lactoferrin (in words) (eosinophils [1]): neither the lower concentrations of heparin nor any of the concentrations of chondroitin sulfate inhibited the eosinophil superoxide production

Substance: heparin [reference compound]
- inhibition of superoxide production stimulated by 10 micrograms per milliliter immobilized secretory IgA (eosinophils [1]; 1000 micrograms per milliliter heparin, not statistically significant (p=0.07)): 28+/−11%
- inhibition of superoxide production stimulated by 30 micrograms per milliliter of immobilized lactoferrin (eosinophils [1]): approximately 25%
- inhibition of superoxide production stimulated by 30 micrograms per milliliter of immobilized lactoferrin (eosinophils [1]; listed as Heparin): 25%
- inhibition of superoxide production stimulated by immobilized lactoferrin (in words) (eosinophils [1]): neither the lower concentrations of heparin nor any of the concentrations of chondroitin sulfate inhibited the eosinophil superoxide production

Substance: immobilized transferrin: transferrin, family member of lactoferrin, coated on tissue culture wells [reference compound]
- stimulation of eosinophil superoxide production (in words) (eosinophils [1]; 1 to 100 micrograms per milliliter of the protein, 2 hours at 37° C): did not stimulate superoxide production

Substance: transferrin: unlabeled transferrin used in excess as competitor in the binding experiments [reference compound]
- inhibition of eosinophil binding of 125I-labeled lactoferrin [4]: not inhibited
